Assays:
GPR109B = molecular target: T1, GPR109B (Homo sapiens, UniProt P49019); experiment: PathHunter β-arrestin assay; format: cell-based; conditions: screen, control agonist; CHO, 37C, 2HR
T1 construct: purchased Eurofins DiscoverX (PathHunter gpcrMAX)

EBI2 = molecular target: T2, EBI2 (Homo sapiens, UniProt P32249); experiment: PathHunter β-arrestin assay; format: cell-based; conditions: screen, control agonist; CHO, RT, 2HR
T2 construct: purchased Eurofins DiscoverX (PathHunter gpcrMAX)

DRD2S = DRD2S (Homo sapiens, UniProt P14416); conditions: screen, control agonist; CHO, RT, 2HR
DRD2L = DRD2L (Homo sapiens, UniProt P14416); experiment: PathHunter β-arrestin assay; format: cell-based; conditions: control agonist
GPR120 = molecular target: T3, GPR120 (Homo sapiens, UniProt Q5NUL3); experiment: PathHunter β-arrestin assay; format: cell-based; conditions: screen, control agonist; CHO, 37C, 2HR
T3 construct: purchased Eurofins DiscoverX (PathHunter gpcrMAX)

FFAR1 = molecular target: T4, FFAR1 (Homo sapiens, UniProt O14842); experiment: PathHunter β-arrestin assay; format: cell-based; conditions: screen, control agonist; DLD1, 37C, 4HR
T4 construct: purchased Eurofins DiscoverX (PathHunter gpcrMAX)

GPR92 = molecular target: T5, GPR92 (Homo sapiens, UniProt Q9H1C0); experiment: PathHunter β-arrestin assay; format: cell-based; conditions: screen, control agonist; CHO, RT, 3HR
T5 construct: purchased Eurofins DiscoverX (PathHunter gpcrMAX)

EDG4 = molecular target: T6, EDG4 (Homo sapiens, UniProt Q9HBW0); experiment: PathHunter β-arrestin assay; format: cell-based; conditions: screen, control agonist; CHO, RT, 3HR
T6 construct: purchased Eurofins DiscoverX (PathHunter gpcrMAX)

EDG7 = molecular target: T7, EDG7 (Homo sapiens, UniProt Q9UBY5); experiment: PathHunter β-arrestin assay; format: cell-based; conditions: screen, control agonist; CHO, RT, 3HR
T7 construct: purchased Eurofins DiscoverX (PathHunter gpcrMAX)

ADRA1B = molecular target: T8, ADRA1B (Homo sapiens, UniProt P35368); experiment: PathHunter β-arrestin assay; format: cell-based; conditions: screen, control agonist; CHO, 37C, 2HR
T8 construct: purchased Eurofins DiscoverX (PathHunter gpcrMAX)

EDG1 = molecular target: T9, EDG1 (Homo sapiens, UniProt P21453); experiment: PathHunter β-arrestin assay; format: cell-based; conditions: screen, control agonist; CHO, 37C, 2HR
T9 construct: purchased Eurofins DiscoverX (PathHunter gpcrMAX)

EDG5 = molecular target: T10, EDG5 (Homo sapiens, UniProt O95136); experiment: PathHunter β-arrestin assay; format: cell-based; conditions: screen, control agonist; CHO, 37C, 2HR
T10 construct: purchased Eurofins DiscoverX (PathHunter gpcrMAX)

EDG6 = molecular target: T11, EDG6 (Homo sapiens, UniProt O95977); experiment: PathHunter β-arrestin assay; format: cell-based; conditions: screen, control agonist; CHO, 37C, 4HR
T11 construct: purchased Eurofins DiscoverX (PathHunter gpcrMAX)

EDG3 = molecular target: T12, EDG3 (Homo sapiens, UniProt Q99500); experiment: PathHunter β-arrestin assay; format: cell-based; conditions: screen, control agonist; CHO, 37C, 2HR
T12 construct: purchased Eurofins DiscoverX (PathHunter gpcrMAX)

GPR1 = molecular target: T13, GPR1 (Homo sapiens, UniProt P46091); experiment: PathHunter β-arrestin assay; format: cell-based; conditions: screen, control agonist; CHO, 37C, 2HR
T13 construct: purchased Eurofins DiscoverX (PathHunter gpcrMAX)
T13 sequence (P46091 1-355): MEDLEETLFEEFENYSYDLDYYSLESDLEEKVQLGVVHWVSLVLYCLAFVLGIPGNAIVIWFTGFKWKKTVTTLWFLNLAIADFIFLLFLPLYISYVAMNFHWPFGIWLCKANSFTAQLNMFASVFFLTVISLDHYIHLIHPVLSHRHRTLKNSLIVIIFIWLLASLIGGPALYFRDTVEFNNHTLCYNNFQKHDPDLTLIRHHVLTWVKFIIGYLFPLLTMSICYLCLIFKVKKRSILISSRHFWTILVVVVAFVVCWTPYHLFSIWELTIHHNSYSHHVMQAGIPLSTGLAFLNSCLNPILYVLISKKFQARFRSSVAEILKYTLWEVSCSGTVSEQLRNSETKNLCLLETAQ

GPR103 = molecular target: T14, GPR103 (Homo sapiens, UniProt Q96P65); experiment: PathHunter β-arrestin assay; format: cell-based; conditions: screen, control agonist; CHO, RT, 2HR
T14 construct: purchased Eurofins DiscoverX (PathHunter gpcrMAX)
T14 sequence (Q96P65 1-431): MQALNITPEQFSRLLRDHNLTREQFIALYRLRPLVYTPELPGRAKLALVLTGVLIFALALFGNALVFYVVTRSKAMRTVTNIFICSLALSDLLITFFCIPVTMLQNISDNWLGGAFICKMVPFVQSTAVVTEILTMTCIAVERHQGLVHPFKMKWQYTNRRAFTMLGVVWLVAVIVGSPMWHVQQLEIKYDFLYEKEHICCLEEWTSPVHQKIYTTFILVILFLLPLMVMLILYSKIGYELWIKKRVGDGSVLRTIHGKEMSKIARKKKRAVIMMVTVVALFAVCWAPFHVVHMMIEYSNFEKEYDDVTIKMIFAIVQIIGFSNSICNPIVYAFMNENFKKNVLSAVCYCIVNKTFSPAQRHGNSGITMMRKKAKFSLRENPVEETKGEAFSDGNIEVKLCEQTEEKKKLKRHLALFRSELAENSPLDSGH

FPR1 = molecular target: T15, FPR1 (Homo sapiens, UniProt P21462); experiment: PathHunter β-arrestin assay; format: cell-based; conditions: control agonist
T15 sequence (P21462 1-350): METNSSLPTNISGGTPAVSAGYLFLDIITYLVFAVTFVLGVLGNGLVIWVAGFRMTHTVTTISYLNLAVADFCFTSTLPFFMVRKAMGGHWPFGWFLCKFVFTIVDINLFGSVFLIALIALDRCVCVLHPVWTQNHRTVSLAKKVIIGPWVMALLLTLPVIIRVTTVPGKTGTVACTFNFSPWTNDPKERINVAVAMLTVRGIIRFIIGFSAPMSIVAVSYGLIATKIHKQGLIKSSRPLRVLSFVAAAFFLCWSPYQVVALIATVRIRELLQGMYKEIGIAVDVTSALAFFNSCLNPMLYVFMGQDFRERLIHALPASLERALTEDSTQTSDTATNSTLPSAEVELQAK

FPRL1 = molecular target: T16, FPRL1 (Homo sapiens, UniProt P25090); experiment: PathHunter β-arrestin assay; format: cell-based; conditions: screen, control agonist; CHO, 37C, 2HR
T16 construct: purchased Eurofins DiscoverX (PathHunter gpcrMAX)

CXCR6 = molecular target: T17, CXCR6 (Homo sapiens, UniProt O00574); experiment: PathHunter β-arrestin assay; format: cell-based; conditions: screen, control agonist; HEK, 37C, 2HR
T17 construct: purchased Eurofins DiscoverX (PathHunter gpcrMAX)

[1] = follow-up concentration-response assays

Sequence of DRD2L (P14416 whole entry): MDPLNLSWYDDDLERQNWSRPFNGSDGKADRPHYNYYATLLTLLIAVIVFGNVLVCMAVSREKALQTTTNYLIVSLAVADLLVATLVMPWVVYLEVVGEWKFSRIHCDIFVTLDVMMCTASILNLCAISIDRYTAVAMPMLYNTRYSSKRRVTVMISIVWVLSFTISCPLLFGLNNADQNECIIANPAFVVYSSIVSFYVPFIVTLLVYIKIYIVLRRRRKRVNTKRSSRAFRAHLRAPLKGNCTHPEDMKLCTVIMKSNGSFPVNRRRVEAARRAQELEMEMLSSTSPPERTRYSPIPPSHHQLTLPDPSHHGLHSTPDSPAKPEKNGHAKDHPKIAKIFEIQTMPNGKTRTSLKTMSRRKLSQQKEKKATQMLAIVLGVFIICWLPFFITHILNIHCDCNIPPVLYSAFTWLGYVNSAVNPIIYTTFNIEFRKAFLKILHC
T10 sequence (O95136 whole entry): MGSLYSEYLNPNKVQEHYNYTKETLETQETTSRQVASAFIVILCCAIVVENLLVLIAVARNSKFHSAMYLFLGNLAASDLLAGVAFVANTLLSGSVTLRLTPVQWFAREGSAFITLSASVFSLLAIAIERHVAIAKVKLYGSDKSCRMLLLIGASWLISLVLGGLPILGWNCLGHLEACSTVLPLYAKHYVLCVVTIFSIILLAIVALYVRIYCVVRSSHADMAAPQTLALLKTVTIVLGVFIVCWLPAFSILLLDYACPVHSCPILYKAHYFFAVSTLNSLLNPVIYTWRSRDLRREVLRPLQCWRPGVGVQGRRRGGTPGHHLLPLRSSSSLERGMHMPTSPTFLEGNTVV
T17 sequence (O00574 whole entry): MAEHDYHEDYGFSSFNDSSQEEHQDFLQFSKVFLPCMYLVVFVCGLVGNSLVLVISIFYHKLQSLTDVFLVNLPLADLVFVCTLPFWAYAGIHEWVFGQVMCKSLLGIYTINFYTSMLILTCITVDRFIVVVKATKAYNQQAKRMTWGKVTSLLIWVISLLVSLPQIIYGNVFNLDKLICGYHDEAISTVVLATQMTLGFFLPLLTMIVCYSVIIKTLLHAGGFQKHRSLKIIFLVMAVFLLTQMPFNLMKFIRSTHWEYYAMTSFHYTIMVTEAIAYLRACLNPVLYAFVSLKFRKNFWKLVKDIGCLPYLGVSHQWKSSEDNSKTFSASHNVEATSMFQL
T11 sequence (O95977 whole entry): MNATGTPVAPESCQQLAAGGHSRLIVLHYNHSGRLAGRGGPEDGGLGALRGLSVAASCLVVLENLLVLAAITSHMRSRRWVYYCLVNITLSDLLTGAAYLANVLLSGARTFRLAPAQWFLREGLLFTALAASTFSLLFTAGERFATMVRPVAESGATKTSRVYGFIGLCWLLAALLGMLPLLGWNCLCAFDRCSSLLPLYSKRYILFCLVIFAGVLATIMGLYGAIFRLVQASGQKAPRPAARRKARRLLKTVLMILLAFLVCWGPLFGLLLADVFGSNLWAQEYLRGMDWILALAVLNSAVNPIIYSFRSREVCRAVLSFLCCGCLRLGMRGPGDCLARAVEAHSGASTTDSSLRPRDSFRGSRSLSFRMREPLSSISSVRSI
T5 sequence (Q9H1C0 whole entry): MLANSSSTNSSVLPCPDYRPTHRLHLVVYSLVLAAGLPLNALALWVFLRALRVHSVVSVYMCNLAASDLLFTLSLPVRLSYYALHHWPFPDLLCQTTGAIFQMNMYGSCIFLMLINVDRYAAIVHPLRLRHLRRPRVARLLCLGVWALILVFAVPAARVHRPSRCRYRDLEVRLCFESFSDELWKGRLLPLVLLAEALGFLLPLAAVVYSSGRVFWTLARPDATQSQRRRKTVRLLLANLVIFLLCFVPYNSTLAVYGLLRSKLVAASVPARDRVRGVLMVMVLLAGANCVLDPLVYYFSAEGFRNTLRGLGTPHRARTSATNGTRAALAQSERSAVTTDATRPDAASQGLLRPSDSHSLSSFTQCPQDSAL
T9 sequence (P21453 whole entry): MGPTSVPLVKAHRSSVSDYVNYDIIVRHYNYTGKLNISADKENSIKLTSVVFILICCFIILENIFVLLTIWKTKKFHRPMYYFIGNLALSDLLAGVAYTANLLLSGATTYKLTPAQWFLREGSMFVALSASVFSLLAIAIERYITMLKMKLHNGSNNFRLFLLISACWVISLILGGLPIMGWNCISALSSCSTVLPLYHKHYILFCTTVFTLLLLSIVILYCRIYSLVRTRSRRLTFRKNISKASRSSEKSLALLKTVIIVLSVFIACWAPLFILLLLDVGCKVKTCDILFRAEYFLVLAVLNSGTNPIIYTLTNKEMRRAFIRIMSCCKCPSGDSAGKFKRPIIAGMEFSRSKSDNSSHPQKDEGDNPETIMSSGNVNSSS
T16 sequence (P25090 whole entry): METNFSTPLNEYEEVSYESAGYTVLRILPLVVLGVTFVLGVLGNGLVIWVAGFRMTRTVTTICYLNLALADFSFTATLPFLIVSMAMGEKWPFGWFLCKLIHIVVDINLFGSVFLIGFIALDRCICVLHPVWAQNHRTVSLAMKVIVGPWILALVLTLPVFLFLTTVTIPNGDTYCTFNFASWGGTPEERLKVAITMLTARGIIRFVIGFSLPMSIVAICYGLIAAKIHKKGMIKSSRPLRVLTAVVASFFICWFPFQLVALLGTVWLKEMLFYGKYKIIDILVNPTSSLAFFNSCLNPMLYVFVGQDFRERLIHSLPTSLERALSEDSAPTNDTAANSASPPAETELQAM
T4 sequence (O14842 whole entry): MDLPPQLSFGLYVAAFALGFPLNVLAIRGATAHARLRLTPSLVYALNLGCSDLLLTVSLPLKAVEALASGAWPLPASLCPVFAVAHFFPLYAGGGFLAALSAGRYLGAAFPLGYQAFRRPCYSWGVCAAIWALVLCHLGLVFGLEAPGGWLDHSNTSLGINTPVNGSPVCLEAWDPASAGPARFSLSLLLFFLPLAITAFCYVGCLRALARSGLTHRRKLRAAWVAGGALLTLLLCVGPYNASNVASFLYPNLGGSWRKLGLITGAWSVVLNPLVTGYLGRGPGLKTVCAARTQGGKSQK
T12 sequence (Q99500 whole entry): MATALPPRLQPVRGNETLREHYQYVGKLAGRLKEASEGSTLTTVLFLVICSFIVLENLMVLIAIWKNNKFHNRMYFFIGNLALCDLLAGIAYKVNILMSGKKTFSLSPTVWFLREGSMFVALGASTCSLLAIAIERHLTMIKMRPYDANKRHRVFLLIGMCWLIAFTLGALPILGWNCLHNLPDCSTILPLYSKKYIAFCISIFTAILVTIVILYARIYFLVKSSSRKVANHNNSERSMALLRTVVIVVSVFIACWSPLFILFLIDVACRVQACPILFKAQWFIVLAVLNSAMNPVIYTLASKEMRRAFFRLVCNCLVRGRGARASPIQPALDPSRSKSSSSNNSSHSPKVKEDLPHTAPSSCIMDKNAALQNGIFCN
T1 sequence (P49019 whole entry): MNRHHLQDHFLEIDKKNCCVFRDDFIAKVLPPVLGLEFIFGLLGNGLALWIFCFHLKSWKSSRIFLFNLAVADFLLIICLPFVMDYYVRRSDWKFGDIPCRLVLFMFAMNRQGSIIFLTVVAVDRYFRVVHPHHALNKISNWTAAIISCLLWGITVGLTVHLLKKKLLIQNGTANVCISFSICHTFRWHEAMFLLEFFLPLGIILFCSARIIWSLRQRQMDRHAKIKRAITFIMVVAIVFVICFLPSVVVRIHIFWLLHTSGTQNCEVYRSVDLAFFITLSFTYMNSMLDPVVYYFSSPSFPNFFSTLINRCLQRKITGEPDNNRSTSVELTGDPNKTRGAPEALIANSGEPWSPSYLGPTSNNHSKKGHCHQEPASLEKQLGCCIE
Sequence of DRD2S (P14416 1-414 isoform P14416-2): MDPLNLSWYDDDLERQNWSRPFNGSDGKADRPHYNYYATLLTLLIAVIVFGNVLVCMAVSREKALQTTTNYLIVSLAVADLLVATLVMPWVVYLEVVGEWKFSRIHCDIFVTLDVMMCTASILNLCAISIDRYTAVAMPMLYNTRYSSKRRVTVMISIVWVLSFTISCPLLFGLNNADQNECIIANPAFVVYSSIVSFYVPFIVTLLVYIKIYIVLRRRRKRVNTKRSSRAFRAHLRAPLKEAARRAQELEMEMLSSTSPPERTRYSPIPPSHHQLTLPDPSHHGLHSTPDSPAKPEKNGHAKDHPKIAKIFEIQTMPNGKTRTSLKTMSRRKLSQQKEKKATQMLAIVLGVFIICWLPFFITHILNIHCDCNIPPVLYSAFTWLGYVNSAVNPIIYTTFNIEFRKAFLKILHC
T3 sequence (Q5NUL3 whole entry): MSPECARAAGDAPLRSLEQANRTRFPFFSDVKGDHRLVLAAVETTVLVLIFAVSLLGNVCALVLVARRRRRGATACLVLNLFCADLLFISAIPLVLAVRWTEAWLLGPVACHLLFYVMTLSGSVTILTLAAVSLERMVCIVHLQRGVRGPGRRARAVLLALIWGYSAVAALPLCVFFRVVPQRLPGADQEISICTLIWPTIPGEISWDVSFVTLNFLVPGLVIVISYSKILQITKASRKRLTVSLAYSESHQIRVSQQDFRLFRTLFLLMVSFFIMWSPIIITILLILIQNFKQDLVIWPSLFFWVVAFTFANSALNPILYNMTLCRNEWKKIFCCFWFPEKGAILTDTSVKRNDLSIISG
T6 sequence (Q9HBW0 whole entry): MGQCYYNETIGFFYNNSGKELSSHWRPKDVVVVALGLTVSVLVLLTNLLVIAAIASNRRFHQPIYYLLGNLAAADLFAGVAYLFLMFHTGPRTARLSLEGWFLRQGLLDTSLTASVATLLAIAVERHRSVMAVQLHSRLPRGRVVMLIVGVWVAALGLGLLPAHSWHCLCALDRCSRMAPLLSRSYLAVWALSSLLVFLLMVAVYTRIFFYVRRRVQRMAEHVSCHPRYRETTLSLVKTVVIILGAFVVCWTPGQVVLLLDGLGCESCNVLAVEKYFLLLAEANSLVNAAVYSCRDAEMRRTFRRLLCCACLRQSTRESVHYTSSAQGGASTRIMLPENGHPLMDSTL

For CCCCCC(O)CC(=O)O (stereo not drawn) [3-Hydroxyoctanoic Acid], the EC80 (GPR109B) was 904000 nM.

Work on C[C@H](CCCC(C)(C)O)[C@H]1CC[C@H]2[C@@H]3[C@H](O)C=C4C[C@@H](O)CC[C@]4(C)[C@H]3CC[C@]12C [7a,25-Dihydroxycholesterol] yielded an EC80 (EBI2) of 23.3 nM.

In the case of NCCc1ccc(O)c(O)c1 [Dopamine], the EC80 (DRD2S) is reported as 300 nM, the EC80 (DRD2L; [1]) is reported as 200 nM and the EC80 (DRD2L; screen, CHO, 37C, 2HR) is reported as 100 nM.

O=C(O)CCc1ccc(NCc2cccc(Oc3ccccc3)c2)cc1 [GW9508] showed an EC80 (GPR120) of 21500 nM and an EC80 (FFAR1) of 402 nM.

CCCCCCCC/C=C\CCCCCCCC(=O)OC[C@@H](O)COP(=O)(O)O [Oleoyl LPA] showed an EC80 (GPR92) of 4280 nM, an EC80 (EDG4) of 1960 nM and an EC80 (EDG7) of 3480 nM.

In the case of CNC[C@H](O)c1cccc(O)c1 [Phenylephrine], the EC80 (ADRA1B) is reported as 133 nM.

Work on CCCCCCCCCCCCC/C=C/[C@@H](O)[C@@H](N)COP(=O)(O)O [S-1-P] yielded an EC80 (EDG1) of 117 nM, an EC80 (EDG5) of 119 nM and an EC80 (EDG6) of 180 nM. For the same molecule, the EC80 (EDG3) was 194 nM.

With Chemerin: control agonist the EC80 (GPR1) was 4.61 nM.

QRFP-26 gave an EC80 (GPR103) of 14.2 nM.

WKYMVm-NH2 was tested, and the EC80 (FPR1; [1]) was 8.52 nM, the EC80 (FPR1; screen, CHO, 37C, 2HR) was 8.52 nM and the EC80 (FPRL1) was 3.91 nM.

B1: CXCL16: control agonist (protein, UniProt Q9H2A7 30-254, looked up)
C-X-C motif chemokine 16: NEGSVTGSCYCGKRISSDSPPSVQFMNRLRKHLRAYHRCLYYTRFQLLSWSVCGGNKDPWVQELMSCLDLKECGHAYSGIVAHQKHLLPTSPPISQASEGASSDIHTPAQMLLSTLQSTQRPTLPVGSLSSDKELTRPNETTIHTAGHSLAAGPEAGENQKQPEKNAGPTARTSATVPVLCLLAIIFILTAALSYVLCKRRRGQSPQSSPDLPVHYIPVAPDSNT
In the case of B1, the EC80 (CXCR6) is reported as 1.39 nM.
